This passage reports IC50 results from patent publication US10364245B2 (CHIESI FARMACEUTICI S.p.A., priority 2017, dated 2019).

Counter-ions that a name gives are not always drawn. Some results are limits rather than exact numbers.

One test addresses T1, p38 alpha (Homo sapiens, UniProt Q16539).
T1 construct: purchased Invitrogen PV3304
Kind of test: P38 alpha enzyme inhibition assay (Alphascreen kinase activity assay). The following applies: 100 pM p38 alpha, 2 hours preincubation at 25° C., 250 μM ATP, ATF-2 fusion protein; read-out: p38α inhibition. The format is biochemical. Summed up:
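Phosphorylation of ATF-2 fusion protein (0.3 μg/ml) read by AlphaScreen with anti-phospho-ATF2 antibody after 1 h kinase reaction at 25 °C, initiated by 250 μM ATP. Compounds first incubated 2 h at 25 °C with 100 pM p38 alpha in pH 7.5 HEPES buffer, 1% DMSO. IC50 derived from concentration-response data.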

The subject of test [1] is Peripheral Blood Mononuclear Cells (PBMCs), TNFα release. The test is described as follows: LPS-stimulated PBMC TNFα release assay. Type of test: cell-based. The following applies: human PBMC, LPS (10 ng/ml), 18 h, compound 1 h before LPS; read-out: LPS-stimulated PBMC TNFα release inhibition. In outline: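 TNFα in cell-free supernatant, read on MSD plates, gave % inhibition curves and IC50 (≥3 separate experiments). Healthy-donor PBMCs had 1 h compound exposure at 37 °C in 1% FBS medium, then 18 h stimulation with 10 ng/ml LPS, after a 3 h serum-free rest.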

T1 sequence (Q16539 whole entry): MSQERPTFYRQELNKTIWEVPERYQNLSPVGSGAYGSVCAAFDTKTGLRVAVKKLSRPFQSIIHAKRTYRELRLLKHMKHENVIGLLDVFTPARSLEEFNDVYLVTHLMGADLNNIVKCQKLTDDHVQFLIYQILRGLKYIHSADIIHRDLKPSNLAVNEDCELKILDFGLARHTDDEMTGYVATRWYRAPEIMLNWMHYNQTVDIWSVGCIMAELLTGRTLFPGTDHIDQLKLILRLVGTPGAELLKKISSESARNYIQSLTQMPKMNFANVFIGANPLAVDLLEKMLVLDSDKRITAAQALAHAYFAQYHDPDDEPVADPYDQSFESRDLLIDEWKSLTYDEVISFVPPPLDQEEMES

`CCC(C)(C)c1nnc2ccc(O[C@@H]3CC[C@H](NC(=O)Nc4cc(C(C)(C)C)nc(C(=O)NCCN(C)CCO)n4)c4ccccc43)cn12` [Example 2, 4-(tert-Butyl)-N-(2-((2-hydroxyethyl)(methyl)amino)ethyl)-6-(3-((1S,4R)-4-((3-(tert-pentyl)-[1,2,4]triazolo[4,3-a]pyridin-6-yl)oxy)-1,2,3,4-tetrahydronaphthalen-1-yl)ureido)pyrimidine-2-carboxamide]: the IC50 at p38 alpha was under 1 nM; in test [1] it was 1 to 5 nM.

With `CCN(C)C(C)(C)CNC(=O)c1nc(NC(=O)N[C@H]2CC[C@@H](Oc3ccc4nnc(C(C)(C)COC)n4c3)c3ccccc32)cc(C(C)(C)C)n1` [Example 152, 4-(tert-butyl)-N-(2-(ethyl(methyl)amino)-2-methylpropyl)-6-(3-((1S,4R)-4-((3-(1-methoxy-2-methylpropan-2-yl)-[1,2,4]triazolo[4,3-a]pyridin-6-yl)oxy)-1,2,3,4-tetrahydronaphthalen-1-yl)ureido)pyrimidine-2-carboxamide], the IC50 on p38 alpha was under 1 nM; in test [1], over 5 nM.

On to `CC(C)N1CCC[C@H]1c1nnc2ccc(O[C@@H]3CC[C@H](NC(=O)Nc4cc(C(C)(C)C)ncn4)c4ccccc43)cn12` [Example 47, 1-(6-(tert-Butyl)pyrimidin-4-yl)-3-((1S,4R)-4-((3-((S)-1-isopropylpyrrolidin-2-yl)-[1,2,4]triazolo[4,3-a]pyridine-6-yl)oxy)-1,2,3,4-tetrahydronaphthalene-1-yl)urea Hydrochloride], for which the results for the IC50 (at p38 alpha; in test [1]) were under 1 nM and over 5 nM, respectively.

Turning to `COC(C)(C)c1nnc2ccc(O[C@@H]3CC[C@H](NC(=O)Nc4cc(C(C)(C)C)nc(CO)n4)c4ccccc43)cn12` [Example 13, 1-(6-(tert-Butyl)-2-(hydroxymethyl)pyrimidin-4-yl)-3-((1S,4R)-4-((3-(2-methoxypropan-2-yl)-[1,2,4]triazolo[4,3-a]pyridine-6-yl)oxy)-1,2,3,4-tetrahydronaphthalene-1-yl)urea], the values for the IC50 (on p38 alpha; in test [1]) were under 1 nM and 1 to 5 nM, respectively.

Turning to `CN1CCC[C@@]1(C)c1nnc2ccc(O[C@@H]3CC[C@H](NC(=O)Nc4cc(C(C)(C)C)nc(NS(C)(=O)=O)n4)c4ccccc43)cn12` [Example 30, N-(4-(tert-Butyl)-6-(3-((1S,4R)-4-((3-((S)-1,2-dimethylpyrrolidin-2-yl)-[1,2,4]triazolo[4,3-a]pyridin-6-yl)oxy)-1,2,3,4-tetrahydronaphthalen-1-yl)ureido)pyrimidin-2-yl)methanesulfonamide], the IC50 was 1 to 10 nM on p38 alpha and 1 to 5 nM in test [1].

For `CCC(C)(C)c1nnc2ccc(O[C@@H]3CC[C@H](NC(=O)Nc4cc(C(C)(C)C)nc(C(=O)NCCN(C)C)n4)c4ccccc43)cn12` [Example 3, 4-(tert-Butyl)-N-(2-(dimethylamino)ethyl)-6-(3-((1S,4R)-4-((3-(tert-pentyl)-[1,2,4]triazolo[4,3-a]pyridin-6-yl)oxy)-1,2,3,4-tetrahydronaphthalen-1-yl)ureido)pyrimidine-2-carboxamide], the figures for the IC50 (at p38 alpha; in test [1]) were under 1 nM and 1 to 5 nM, respectively.

As to `CN1CCC(NC(=O)c2nc(NC(=O)N[C@H]3CC[C@@H](Oc4ccc5nnc(C(C)(C)C)n5c4)c4ccccc43)cc(C(C)(C)C)n2)CC1` [Example 134, 4-(tert-butyl)-6-(3-((1S,4R)-4-((3-(tert-butyl)-[1,2,4]triazolo[4,3-a]pyridin-6-yl)oxy)-1,2,3,4-tetrahydronaphthalen-1-yl)ureido)-N-(1-methylpiperidin-4-yl)pyrimidine-2-carboxamide], the IC50 is 1 to 10 nM on p38 alpha and over 5 nM in test [1].

Turning to `Cc1ncc(C(C)(C)C)cc1NC(=O)N[C@H]1CC[C@@H](Oc2ccc3nnc([C@]4(C)CCCN4C)n3c2)c2ccccc21` [Example 50, 1-(5-(tert-Butyl)-2-methylpyridin-3-yl)-3-((1S,4R)-4-((3-((S)-1,2-dimethylpyrrolidin-2-yl)-[1,2,4]triazolo[4,3-a]pyridin-6-yl)oxy)-1,2,3,4-tetrahydronaphthalen-1-yl)urea], the IC50 (on p38 alpha; in test [1]) was under 1 nM in each case.

For the compound `CC(C)(C)c1cc(NC(=O)N[C@H]2CC[C@@H](Oc3ccc4nnc(C(C)(C)C)n4c3)c3ccccc32)nc(C(=O)NCCN2CCC2)n1` [Example 140, N-(2-(azetidin-1-yl)ethyl)-4-(tert-butyl)-6-(3-((1S,4R)-4-((3-(tert-butyl)-[1,2,4]triazolo[4,3-a]pyridin-6-yl)oxy)-1,2,3,4-tetrahydronaphthalen-1-yl)ureido)pyrimidine-2-carboxamide], the IC50 on p38 alpha was under 1 nM; in test [1], over 5 nM.

As to `COCC(C)(C)c1nnc2ccc(O[C@@H]3CC[C@H](NC(=O)Nc4cc(C(C)(C)C)nc(C(=O)NCCN5CC(OC)C5)n4)c4ccccc43)cn12` [Example 166, 4-(tert-butyl)-6-(3-((1S,4R)-4-((3-(1-methoxy-2-methylpropan-2-yl)-[1,2,4]triazolo[4,3-a]pyridin-6-yl)oxy)-1,2,3,4-tetrahydronaphthalen-1-yl)ureido)-N-(2-(3-methoxyazetidin-1-yl)ethyl)pyrimidine-2-], the IC50 at p38 alpha is under 1 nM; in test [1], over 5 nM.

For the compound `COCC(C)(C)c1nnc2ccc(O[C@@H]3CC[C@H](NC(=O)Nc4cc(C(C)(C)C)nc(C(=O)NCC(C)(C)N5CC(OC)C5)n4)c4ccccc43)cn12` [Example 171, 4-(tert-butyl)-6-(3-((1S,4R)-4-((3-(1-methoxy-2-methylpropan-2-yl)-[1,2,4]triazolo[4,3-a]pyridin-6-yl)oxy)-1,2,3,4-tetrahydronaphthalen-1-yl)ureido)-N-(2-(3-methoxyazetidin-1-yl)-2-methylpropyl)pyrimidine-2-carboxamide], the IC50 was 1 to 10 nM on p38 alpha and 1 to 5 nM in test [1].

Turning to `CC(C)(C)c1cc(NC(=O)N[C@H]2CC[C@@H](Oc3ccc4nnc(C5(C)CCCC5)n4c3)c3ccccc32)nc(C(=O)NCCN2CCCOCC2)n1` [Example 182, N-(2-(1,4-oxazepan-4-yl)ethyl)-4-(tert-butyl)-6-(3-((1S,4R)-4-((3-(1-methylcyclopentyl)-[1,2,4]triazolo[4,3-a]pyridin-6-yl)oxy)-1,2,3,4-tetrahydronaphthalen-1-yl)ureido)pyrimidine-2-carboxamide], the IC50 (at p38 alpha; in test [1]) was under 1 nM in each case.

As for `COCC(C)(C)c1nnc2ccc(O[C@@H]3CC[C@H](NC(=O)Nc4cc(C(C)(C)C)nc(C(=O)NCCN5CCCOCC5)n4)c4ccccc43)cn12` [Example 122, N-(2-(1,4-oxazepan-4-yl)ethyl)-4-(tert-butyl)-6-(3-((1S,4R)-4-((3-(1-methoxy-2-methylpropan-2-yl)-[1,2,4]triazolo[4,3-a]pyridin-6-yl)oxy)-1,2,3,4-tetrahydronaphthalen-1-yl)ureido)pyrimidine-2-carboxamide], the IC50 is under 1 nM at p38 alpha and 1 to 5 nM in test [1].

Consider `CCN(CC)c1nnc2ccc(O[C@@H]3CC[C@H](NC(=O)Nc4cc(C(=O)NCCN(C)C)nc(C(C)(C)C)c4)c4ccccc43)cn12` [Example 10, 6-(tert-Butyl)-4-(3-((1S,4R)-4-((3-(diethylamino)-[1,2,4]triazolo[4,3-a]pyridin-6-yl)oxy)-1,2,3,4-tetrahydronaphthalen-1-yl)ureido)-N-(2-(dimethylamino)ethyl)picolinamide], for which the IC50 is under 1 nM at p38 alpha and 1 to 5 nM in test [1].

In the case of `CCC(C)(C)c1nnc2ccc(O[C@@H]3CC[C@H](NC(=O)Nc4cc(C(C)(C)C)nc(C(=O)NCCN5CCOCC5)n4)c4ccccc43)cn12` [Example 131, 4-(tert-butyl)-N-(2-morpholinoethyl)-6-(3-((1S,4R)-4-((3-(tert-pentyl)-[1,2,4]triazolo[4,3-a]pyridin-6-yl)oxy)-1,2,3,4-tetrahydronaphthalen-1-yl)ureido)pyrimidine-2-carboxamide], the IC50 at p38 alpha was under 1 nM; in test [1], 1 to 5 nM.

As for `COCCN(C)CCNC(=O)c1nc(NC(=O)N[C@H]2CC[C@@H](Oc3ccc4nnc(C5CCCC5)n4c3)c3ccccc32)cc(C(C)(C)C)n1` [Example 76, 4-(tert-butyl)-6-(3-((1S,4R)-4-((3-cyclopentyl-[1,2,4]triazolo[4,3-a]pyridin-6-yl)oxy)-1,2,3,4-tetrahydronaphthalen-1-yl)ureido)-N-(2-((2-methoxyethyl)(methyl)-amino)ethyl)pyrimidine-2-carboxamide], the IC50 on p38 alpha was 1 to 10 nM; in test [1], over 5 nM.

As to `COCC(C)(C)c1nnc2ccc(O[C@@H]3CC[C@H](NC(=O)Nc4cc(C(C)(C)C)nc(C(=O)NCC5(N(C)C)CCCC5)n4)c4ccccc43)cn12` [Example 154, 4-(tert-butyl)-N-((1-(dimethylamino)cyclopentyl)methyl)-6-(3-((1S,4R)-4-((3-(1-methoxy-2-methylpropan-2-yl)-[1,2,4]triazolo[4,3-a]pyridin-6-yl)oxy)-1,2,3,4-tetrahydronaphthalen-1-yl)ureido)pyrimidine-2-carboxamide], the IC50 was under 1 nM at p38 alpha and over 5 nM in test [1].

As to `CC(C)(C)c1cc(NC(=O)N[C@H]2CC[C@@H](Oc3ccc4nnc(C(C)(C)C)n4c3)c3ccccc32)nc(C(=O)NCCN2CCCOCC2)n1` [Example 89, N-(2-(1,4-oxazepan-4-yl)ethyl)-4-(tert-butyl)-6-(3-((1S,4R)-4-((3-(tert-butyl)-[1,2,4]triazolo[4,3-a]pyridin-6-yl)oxy)-1,2,3,4-tetrahydronaphthalen-1-yl)ureido)pyrimidine-2-carboxamide], the IC50 on p38 alpha was in the range of 1 to 10 nM; in test [1], 1 to 5 nM.
